Experimental data reported in ChEMBL document CHEMBL4428037 (J Med Chem, 2016).
pIC50: −log10 of the molar value. Activity calls are given as the source filed them. No cut-off for these calls is given here.

Key:
HeLa = test: Growth inhibition of human HeLa cells incubated for 72 hrs by MTT assay; type: functional, cell-based
PC-3 = test: Growth inhibition of human PC3 cells incubated for 72 hrs by MTT assay; type: functional, cell-based; details: PC-3, 72 h
MCF7 = test: cells; details: Homo sapiens, MCF7, 72 h
HepG2 = test: Growth inhibition of human HepG2 cells incubated for 72 hrs by MTT assay; type: functional, cell-based; details: HepG2, 72 h
Tubulin (Sus scrofa) [1] = molecular target: T1, Tubulin (Sus scrofa) (UniProt P02554+P02550); test: Displacement of [3H]colchicine from biotinylated porcine tubulin at 1 uM incubated for 2 hrs by competition scintillation proximity; type: protein assay
Tubulin = Tubulin (Sus scrofa, UniProt P02554+P02550); test: (§1) Inhibition of porcine brain tubulin polymerization incubated for 60 mins by fluorescence-based assay
Tubulin (Sus scrofa) [2] = molecular target: T1, Tubulin (Sus scrofa); test: as §1
Tubulin (Sus scrofa) [3] = molecular target: T1, Tubulin (Sus scrofa); test: Displacement of [3H]colchicine from biotinylated porcine tubulin at 5 uM incubated for 2 hrs by competition scintillation proximity; type: protein assay
NCI-H460 = test: Growth inhibition of human NCI-H460 cells incubated for 48 hrs by MTT assay; type: functional, cell-based; details: NCI-H460, 48 h
A549 [4] = test: Induction of apoptosis in human A549 cells assessed as induction of cytoplasmic membrane blebbing at 40 nM incubated for 24 hrs microscopy; type: functional, cell-based
A549 [5] = test: Induction of cell cycle arrest in human A549 cells assessed as accumulation at G2/M phase at 40 nM incubated for 24 hrs by propidium iodide staining based FACS flow cytometry; type: functional
[6] = molecular target: T2, Tubulin alpha (Homo sapiens) (UniProt P0DPH7+P68366+Q71U36+P68363+Q9BQE3+Q6PEY2+A6NHL2+Q9NY65); test: Inhibition of alpha tubulin polymerization in human A549 cells assessed as induction of cell border shrinkage of microtubules at 40 nM by Immunofluorescent staining based fluorescence microscopy
A549 [7] = test: Induction of apoptosis in human A549 cells assessed as necrotic cells level at 40 nM incubated for 24 hrs by Annexin V-FITC/PI staining based FACS flow cytometry (reference value: 0.37%); type: functional
A549 [8] = test: Induction of apoptosis in human A549 cells assessed as induction of cell shrinkage at 40 nM incubated for 24 hrs microscopy; type: functional, cell-based
[9] = molecular target: T2, Tubulin alpha (Homo sapiens); test: Inhibition of alpha tubulin polymerization in human A549 cells assessed as induction of microtubule network dis-organization at 40 nM by Immunofluorescent staining based fluorescence microscopy; type: cell-based
A549 [10] = test: Induction of apoptosis in human A549 cells assessed as induction of nucleus fragmentation at 40 nM incubated for 24 hrs microscopy; type: functional, cell-based
A549 [11] = test: Induction of apoptosis in human A549 cells assessed as induction of chromatin condensation at 40 nM incubated for 24 hrs microscopy; type: functional, cell-based
A549 [12] = test: Growth inhibition of human A549 cells incubated for 48 hrs by MTT assay; type: functional, cell-based; details: A549, 48 h
A549 [13] = test: Induction of apoptosis in human A549 cells assessed as live cells level at 40 nM incubated for 24 hrs by Annexin V-FITC/PI staining based FACS flow cytometry (reference value: 96.83%); type: functional
A549 [14] = test: Induction of apoptosis in human A549 cells assessed as late apoptotic cells level at 40 nM incubated for 24 hrs by Annexin V-FITC/PI staining based FACS flow cytometry (reference value: 2.15%); type: functional
A549 [15] = test: Induction of apoptosis in human A549 cells assessed as early apoptotic cells level at 40 nM incubated for 24 hrs by Annexin V-FITC/PI staining based FACS flow cytometry (reference value: 0.65%); type: functional

| SMILES | pIC50 (HeLa) | pIC50 (PC-3) | pIC50 (MCF7) | pIC50 (HepG2) | also measured |
| --- | --- | --- | --- | --- | --- |
| CCOc1cccc(Nc2nn(C)c3c2Cc2cc(OCC)c(OCC(=O)NCCC#N)cc2-3)c1 | 5.84 | 5.07 | 5.34 | 5.62 |  |
| C#CCNC(=O)COc1cc2c(cc1OCC)Cc1c(Nc3cccc(OCC)c3)nn(C)c1-2 | 6.30 | 5.75 | 5.68 | 6.23 |  |
| CCOc1cccc(Nc2nn(C)c3c2Cc2cc(OCC)c(OCC(=O)NC4CC4)cc2-3)c1 | 6.14 | 5.85 | 5.51 | 6.19 |  |
| CCOc1cccc(Nc2nn(C)c3c2Cc2cc(OCC)c(OCC(=O)NCC4CC4)cc2-3)c1 | 5.49 | 5.34 | < 4.30 | 5.77 |  |
| CCOc1cccc(Nc2nn(C)c3c2Cc2cc(OCC)c(OCC(=O)NO)cc2-3)c1 | 7.88 | 7.63 | 7.47 | 7.79 | inhibition (Tubulin (Sus scrofa) [1]): 31%; IC50 (Tubulin): 5.33 µM; inhibition (Tubulin (Sus scrofa) [2]): Dose-dependent effect; inhibition (Tubulin (Sus scrofa) [3]): 63% |
| C=CCNC(=O)COc1cc2c(cc1OCC)Cc1c(Nc3cccc(OCC)c3)nn(C)c1-2 | 6.16 | 5.71 | 6.12 | 6.07 |  |
| CCOc1cccc(Nc2nn(C)c3c2Cc2cc(OCC)c(OCC(=O)NCCO)cc2-3)c1 | 6.38 | 5.43 | 6.18 | 5.74 |  |
| CCNC(=O)COc1cc2c(cc1OCC)Cc1c(Nc3cccc(OCC)c3)nn(C)c1-2 | 6.21 | 5.43 | 5.83 | 5.88 |  |
| CCOc1cccc(Nc2nn(C)c3c2Cc2cc(OCC)c(OCC(=O)NC)cc2-3)c1 | 7.05 | 6.19 | 6.05 | 6.85 |  |
| COc1cc2c(c(OC)c1OC)-c1ccc(OC)c(=O)cc1[C@@H](NC(C)=O)CC2 [COLCHICINE] | 8.12 |  | 7.33 | 7.72 | pIC50 (NCI-H460): 7.31; Activity (A549 [4]): Active; Activity (A549 [5]): 37%; inhibition [6]: Active; Activity (A549 [7]): 1.14%; Activity (A549 [8]): Active; inhibition [9]: Active; Activity (A549 [10]): Active; Activity (A549 [11]): Active; pIC50 (A549 [12]): 7.23; Activity (A549 [13]): 84.59%; Activity (A549 [14]): 5.89%; Activity (A549 [15]): 8.38% |
| CCOc1cccc(Nc2nn(C)c3c2Cc2cc(OCC)c(OCC(=O)NCCOC)cc2-3)c1 | 6.31 | 6.10 | 5.82 | 6.35 |  |
| CCOc1cccc(Nc2nn(C)c3c2Cc2cc(OCC)c(OCC(=O)N(C)C)cc2-3)c1 | 6.14 | 5.75 | 5.21 | 6.04 |  |
| CCOc1cccc(Nc2nn(C)c3c2Cc2cc(OCC)c(OCC(=O)NCCN)cc2-3)c1 | 6.06 | 5.82 | 5.73 | 5.85 |  |
| CCOc1cccc(Nc2nn(C)c3c2Cc2cc(OCC)c(OCC(=O)NOC)cc2-3)c1 | 6.33 | 5.54 | 5.78 | 6.07 |  |
| COc1ccc(S(=O)(=O)Nc2cccnc2Nc2ccc(O)cc2)cc1 [ABT-751] | 6.45 | 6.34 | 5.42 | 6.35 | inhibition (Tubulin (Sus scrofa) [1]): 39%; IC50 (Tubulin): 2.79 µM; inhibition (Tubulin (Sus scrofa) [3]): 68% |
| CCOc1cccc(Nc2nn(C)c3c2Cc2cc(OCC)c(OCC(=O)NN)cc2-3)c1 | 6.46 | 6.12 | 6.24 | 6.40 |  |
| COc1ccc(/C=C\c2cc(OC)c(OC)c(OC)c2)cc1O [COMBRETASTATIN A4] |  | 8.47 | 7.90 | 8.68 | pIC50 (NCI-H460): 7.45; inhibition (Tubulin (Sus scrofa) [3]): 92%; pIC50 (A549 [12]): 7.31 |
| CC(=O)O[C@H]1C(=O)[C@@]2(C)[C@H]([C@H](OC(=O)c3ccccc3)[C@]3(O)C[C@H](OC(=O)[C@H](O)[C@@H](NC(=O)c4ccccc4)c4ccccc4)C(C)=C1C3(C)C)[C@]1(OC(C)=O)CO[C@@H]1C[C@@H]2O [PACLITAXEL] | 7.74 | 7.68 |  |  |  |
| CCOc1cccc(Nc2nn(C)c3c2Cc2cc(OCC)c(OCC(=O)NCCN(C)C)cc2-3)c1 | 6.43 | 6.34 | 5.52 | 6.47 |  |
